Consider 3 compounds from PMC11406233 (Proceedings of the National Academy of Sciences of the …, 2024).

One may read the EC50 as the concentration that produces a half-maximal response.

For assay [1], the system named is SCoV2^WK521WT. In words: microbe, parasite or virus in culture. The conditions noted are these: Severe acute respiratory syndrome coronavirus 2, VeroE6/TMPRSS2, read-out: EC50 from cell-based assay.
For assay [2], the system named is SCoV2^WK521WT. The experiment in a line: microbe, parasite or virus in culture. The conditions noted are these: for EC50: Severe acute respiratory syndrome coronavirus 2, read-out: EC50 from cell-based assay. The assay is classed as cell-based.

Read-outs that look alike come from different tables or passages of the source.

For `COc1cccc2[nH]c(C(=O)N[C@@H](CC(C)C)C(=O)N[C@@H](C[C@@H]3CCNC3=O)C(=O)c3nc4ccccc4s3)cc12` [5h], the EC50 is 4100 nM with SCoV2^WK521WT [1] and 200 ± 90 nM in the assay with SCoV2^WK521WT [2].

On to `CC(C)(C)[C@H](NC(=O)C(F)(F)F)C(=O)N1C[C@H]2[C@@H]([C@H]1C(=O)N[C@@H](C[C@@H]1CCNC1=O)C(=O)c1nc3c(F)cccc3s1)C2(C)C` [TKB245], for which, in the assay with SCoV2^WK521WT [1], the EC50 was 330 nM. In addition, in the assay on SCoV2^WK521WT [2], the “Difference in the EC50 values of NIR and TKB245” value was determined as 34.7 fold; the EC50 was 1.5 nM.

On to `CC(C)(C)[C@H](NC(=O)C(F)(F)F)C(=O)N1C[C@H]2[C@@H]([C@H]1C(=O)N[C@H](C#N)C[C@@H]1CCNC1=O)C2(C)C` [nirmatrelvir, reference compound], for which the EC50 in the assay with SCoV2^WK521WT [1] amounted to 1500 nM; in the assay with SCoV2^WK521WT [2], 52 nM.
